Data on 104 compounds can be found in PubChem BioAssay AID1996.

≈ marks a conversion by molar mass, not a printed value. Residues, ends and D or L forms follow the SMILES beside them. *: point of attachment. Cbz = O=C(OCc1ccccc1)* Where only a bound is given, the exact number is not on record here.

For this data set the following is noted: buffer; pH 7.4; 200.0 µM.
As a reminder, the kinetic solubility is the concentration staying in solution when a stock, usually in DMSO, is diluted into the medium. `COc1ccccc1C(=O)NC(=O)COC(=O)C1CC1C` (centres undefined) yielded a solubility (kinetic) above 43.7 µg/mL. To `O=C(COC(=O)c1ccc(F)c(S(=O)(=O)N2CCOCC2)c1)NCc1ccc2c(c1)OCO2` belongs 53.8 µg/mL (≈ 112 µM); to `O=C(COc1ccc(Cl)cc1)OCC(=O)N1CCOCC1`, above 47.1 µg/mL; to `CC(C)(C)c1cc(NC(=O)c2ccco2)no1`, above 35.1 µg/mL. To `CCCn1c(=O)c2[nH]cnc2n(-c2ccc(Cl)cc2)c1=O` belongs 44.9 µg/mL (≈ 147 µM); to `CS(=O)(=O)c1ccc2nc(NC(=O)c3ccc(N4C(=O)CCC4=O)cc3)sc2c1`, 0.3 µg/mL (≈ 0.699 µM); to `C=CCNc1nnc(Sc2ncccc2[N+](=O)[O-])s1`, above 44.3 µg/mL.

Take `COc1ccc(S(=O)(=O)NCCC(=O)OCC(=O)NC2CC2)cc1`: the solubility (kinetic) is above 53.5 µg/mL. To `Cc1c(Cl)cccc1NC(=S)NCc1ccc(F)cc1` belongs 3.7 µg/mL (≈ 12 µM); to `Oc1ccc(-c2cnc(-c3ccc(O)cc3)nc2)cc1`, 1.7 µg/mL (≈ 6.43 µM). To `Cc1cc(C)[n+](Cc2ccccc2)cc1C(N)=O.[Cl-]` belongs above 41.5 µg/mL; to `COc1ccc(CN2CCOCCOCCOCCOCCOCC2)cc1`, above 57.5 µg/mL; to `O=C(Nc1ccn([C@H]2CC[C@@H](CO)O2)c(=O)n1)c1ccccc1`, above 47.3 µg/mL. To `O=C(Nc1ncc([N+](=O)[O-])s1)c1ccc2c(c1)OCO2` belongs 24.9 µg/mL (≈ 84.9 µM); to `COC(=O)C(C)NC(=O)C1CCCN1C(=O)CNC(=O)OCc1ccccc1` (stereo not drawn) (Cbz-Gly-Pro-Ala-OMe; configuration not given here), above 58.7 µg/mL; to `CCOc1ccc(NC(=O)c2ccccc2NC(=O)c2cccnc2)cc1`, 1.4 µg/mL (≈ 3.87 µM). `O=C(CNC(=O)C1CC1)Nc1ccc(F)c(F)c1F` returned a solubility (kinetic) above 40.8 µg/mL. Under `Cc1ccc(C(=O)NCC(=O)Nc2ccncc2)s1` stands above 41.3 µg/mL; under `COc1ccccc1OCC(=O)O/N=C(\N)c1ccccn1`, above 45.2 µg/mL. To `Cc1ccccc1NCc1nc2ccccc2n1C` belongs 5 µg/mL (≈ 19.9 µM); to `COc1ccccc1OCC(O)CN1CCOCC1` (centres undefined), 37.4 µg/mL (≈ 140 µM); to `CC(C)CC(=O)Nc1ccc(C(=O)COC(=O)C2CCC2)cc1`, 5.3 µg/mL (≈ 16.7 µM).

`Cc1cccc(NC(=O)c2cccc(C(=O)Nc3cccc(C)c3C)n2)c1C` came in with a solubility (kinetic) of 1.1 µg/mL (≈ 2.95 µM). For the compound `Cc1cccc(NC(=O)COC(=O)c2cc(C)n(C3CC3)c2C)c1`, the solubility (kinetic) was found to be 9.7 µg/mL (≈ 29.7 µM). To `O=C(CCNC(=O)c1ccccc1)NC1CCCc2ccccc21` (centres undefined) belongs 43.4 µg/mL (≈ 135 µM).

With `CSc1ccc(CN2CCCN(C)CC2)cc1`, the kinetic solubility came out at 22.1 µg/mL (≈ 88.3 µM). Under `O=C(NC(=O)N1CCCc2ccccc21)c1ccccc1` stands 30.2 µg/mL (≈ 108 µM); under `O=C1NC(=O)c2cc(Oc3ccc([N+](=O)[O-])cc3)ccc21`, 2.5 µg/mL (≈ 8.8 µM); under `Cc1ccc(NC(=O)NCc2ccc3[nH]c(C)cc3c2)cc1`, 2.9 µg/mL (≈ 9.89 µM).

With `NC(=O)c1cnn(-c2ccc3ccccc3c2)c1N`, the kinetic solubility is above 37.8 µg/mL. To `CCOc1ccc(NC(=O)NC2CCS(=O)(=O)C2)cc1` (centres undefined) belongs above 44.8 µg/mL.

On to `Cc1cccc(C(=O)OCC(=O)NC23CC4CC(CC(C4)C2)C3)c1O`, for which the solubility (kinetic) was found to be 8.9 µg/mL (≈ 25.9 µM).

The compound `O=C(COc1ccc(F)cc1Br)NCC1COc2ccccc2O1` (centres undefined) showed a solubility (kinetic) of 17.5 µg/mL (≈ 44.2 µM). Consider `N/C(=N\OC(=O)c1ccc(OCC(F)(F)F)nc1)c1ccc(Cl)cc1`, for which the kinetic solubility came out at 1.2 µg/mL (≈ 3.21 µM). Under `c1ccc(Oc2nc(-c3ccccn3)nc3ccccc23)cc1` stands 43.1 µg/mL (≈ 144 µM); under `COCc1cc(SC2CCCCC2)nc(C)n1`, 11.7 µg/mL (≈ 46.4 µM); under `O=C1CCCN1CCCNS(=O)(=O)c1ccc(F)c(F)c1`, above 47.8 µg/mL. To `Cc1ccc(OCC(=O)O/N=C(\N)c2ccccn2)cc1C` belongs 38.1 µg/mL (≈ 127 µM). The compound `O=C(/C=C/c1ccc(Cl)c(Cl)c1)NCCCn1ccnc1` returned a solubility (kinetic) of 38.8 µg/mL (≈ 120 µM). To `CCNC(=S)N1CCN(C(=O)C(Cc2ccccc2)NC(C)=O)CC1` (centres undefined) belongs above 54.4 µg/mL; to `O=C(CC1CCCC1)Nc1cccc(Br)c1`, 18.1 µg/mL (≈ 64.1 µM); to `Cc1ccc(N2CCN(S(=O)(=O)c3ccc(C)cc3)CC2)cc1`, below 0.4 µg/mL. `C/C(=N\O)C(=O)C(CN1CCCCC1)CN1CCCCC1` yielded a solubility (kinetic) of 30.2 µg/mL (≈ 102 µM). Under `CCOc1ccc(C(=O)OC(C)CN2CCCCC2)cc1.Cl` (centres undefined) stands above 49.2 µg/mL.

In turn, `O=C(/C=C/N1CCN(Cc2ccccc2)CC1)C(F)(F)F` displayed a kinetic solubility above 44.7 µg/mL.

`Cc1ccc(NC(=O)CC2CCCC2)c(Br)c1` came in with a solubility (kinetic) of 2.4 µg/mL (≈ 8.1 µM). For `N#Cc1cnc(N)c(Br)c1`, the solubility (kinetic) is 27.8 µg/mL (≈ 140 µM). Under `Cc1ccc2[nH]c3c(c2c1)CCCC3NC(=O)CCl` (centres undefined) stands above 41.5 µg/mL; under `CC(=O)Nc1cc([As](=O)(O)O)ccc1O`, above 41.3 µg/mL; under `O=C(O)c1cc(-c2ccccc2)n(-c2ccc(F)cc2)n1`, above 42.3 µg/mL.

With `COc1ccccc1-c1noc(CCC(=O)NC2CCCC2)n1`, the kinetic solubility is above 47.3 µg/mL. To `COc1cccc(NC(=O)CN2C(=O)COc3ccc(C)cc32)c1` belongs 1.9 µg/mL (≈ 5.82 µM); to `CCCC(=O)N1CC(=O)Nc2ccc(C)cc2C1c1ccccc1` (centres undefined), above 48.4 µg/mL.

For the compound `OCC(O)CNC(=S)NC1CCCCC1` (centres undefined), the solubility (kinetic) was above 34.9 µg/mL. `O=C(COC(=O)c1ccc(Br)c(S(=O)(=O)N2CCOCC2)c1)NCCc1ccccc1` registered a solubility (kinetic) of 24.1 µg/mL (≈ 47.1 µM).

`O=C(c1cccs1)N1CCN=C1SCc1ccc(Cl)cc1` displayed a solubility (kinetic) below 0.4 µg/mL. Under `O=C(NNC1CC(=O)N(c2ccccc2)C1=O)c1cccnc1` (centres undefined) stands above 46.5 µg/mL; under `CC1=NCCN1CCNC(=O)Nc1cc(C)cc(C)c1`, 40 µg/mL (≈ 146 µM). Under `O=C(CCC1CCCCC1)Nc1ccc(C(=O)c2ccncc2)cc1` stands below 0.4 µg/mL; under `Cc1ccc(/C=C/C(=O)NCCc2ccccc2)o1`, 33.9 µg/mL (≈ 133 µM). Under `O=Cc1ccc(C(=O)OCC(=O)NCc2ccco2)cc1` stands above 43.1 µg/mL; under `c1ccc(CSc2cc3ccccc3[nH]2)cc1`, 2.8 µg/mL (≈ 11.7 µM). In turn, `CC(=O)Nc1ccc(NC(C)=O)c(NC2OCC(O)C(O)C2O)c1` (centres undefined) registered a solubility (kinetic) above 50.9 µg/mL. As for `O=C(O)CSc1c2c(nc3cc(C(=O)N4CCCC4)ccc13)CCCC2`, the solubility (kinetic) was 48.6 µg/mL (≈ 131 µM). To `COC(=O)c1ccc(-n2c(C)cc(C(=O)COC(=O)C3=COCCO3)c2C)cc1` belongs 3.7 µg/mL (≈ 9.26 µM); to `COc1cc2c(cc1OC)C(C)N(S(=O)(=O)c1cn(C)c(C)n1)CC2` (centres undefined), above 54.8 µg/mL. To `CCSc1ncc(Cl)c(C(=O)Nc2ccccc2Cl)n1` belongs below 0.2 µg/mL; to `O=C(Nc1c(-c2ccccc2)nc2ccccn12)c1ccccc1F`, above 49.7 µg/mL. In turn, `O=C(COC(=O)c1ccc(F)c(S(=O)(=O)N2CCOCC2)c1)c1ccccc1` displayed a solubility (kinetic) of 6.3 µg/mL (≈ 15.5 µM).

Compound `Cc1[nH]c2ccccc2c1C(=O)C(=O)N1CCC2(CC1)OCCO2` registered a kinetic solubility above 49.3 µg/mL.

Take `CSc1ccc(S(=O)(=O)N2CCC(C(=O)NC3CC3)CC2)cc1`: the solubility (kinetic) is 36 µg/mL (≈ 102 µM). To `COc1ccc(CN2CSC(=S)N(Cc3ccc(OC)cc3)C2)cc1` belongs 0.8 µg/mL (≈ 2.14 µM). To `CCOC(=O)CNC(=S)NN(C)C` belongs above 30.8 µg/mL; to `COc1ccccc1OCCNC(=O)Nc1ccc(Br)cc1`, 1.3 µg/mL (≈ 3.56 µM); to `CCCNC(=O)Cn1nc(C(F)(F)F)c2c1CCC2`, above 41.3 µg/mL. To `Cc1cc(C)nc(SCC(N)=O)n1` belongs 28.5 µg/mL (≈ 144 µM). On to `Cc1ccccc1Nc1c([N+](=O)[O-])cncc1[N+](=O)[O-]`, for which the solubility (kinetic) turned out to be 37.1 µg/mL (≈ 135 µM). Compound `FC(F)(F)c1cnc2c(c1)[nH]c(=S)n2-c1ccc(Cl)cc1` returned a solubility (kinetic) of 3 µg/mL (≈ 9.1 µM).

`COCCCNC(=O)C(CC(N)=O)NC(=O)OCc1ccccc1` (centres undefined) yielded a kinetic solubility above 50.6 µg/mL. Under `CCC(CC)C(=O)OCC(=O)Nc1cccc([N+](=O)[O-])c1` stands 43 µg/mL (≈ 146 µM); under `O=C(COC(=O)CC1CC2CCC1C2)Nc1ccccc1[N+](=O)[O-]` (centres undefined), 2.9 µg/mL (≈ 8.73 µM). To `COc1cccc(COC(=O)C2CCN(C(=O)c3ccccc3C)CC2)c1OC` belongs above 59.6 µg/mL; to `Cn1cc(CCC(=O)NCc2ccc(Cl)cc2)c2ccccc21`, 2.2 µg/mL (≈ 6.73 µM); to `O=C1NC(c2ccccc2)Oc2ccccc21` (centres undefined), 22.9 µg/mL (≈ 102 µM). Under `CCC(=O)c1c[nH]c(C(=O)N2CCOCC2)c1` stands 33.7 µg/mL (≈ 143 µM); under `O=C1NC(=O)/C(=C/c2ccc(-c3cc(C(=O)O)ccc3Cl)o2)S1`, above 52.5 µg/mL; under `COc1cccc2[nH]c(C(=O)NCCCN3CCCC3=O)cc12`, above 47.3 µg/mL. As for `COc1ccc(NC(=O)CN2CCc3ccccc3C2)cc1OC`, the kinetic solubility was above 49 µg/mL.

The compound `O=C1CCCc2c1nc(-c1ccc([N+](=O)[O-])cc1)n2O` displayed a solubility (kinetic) above 41 µg/mL. To `COc1ccc(CNc2ccccn2)c(O)c1` belongs above 34.5 µg/mL; to `O=C(NCC(=O)N1CCN(c2ccccc2O)CC1)c1ccccc1`, 49.4 µg/mL (≈ 146 µM). With `COC(CNc1ncnc2c1cnn2C)OC`, the solubility (kinetic) is above 35.6 µg/mL.

With `COc1ccc(CNC(=O)CC2Sc3ccccc3NC2=O)cc1` (centres undefined), the kinetic solubility was determined as 1.6 µg/mL (≈ 4.67 µM). To `COc1ccc(C(C)NC(=O)c2ccncc2)cc1` (centres undefined) belongs 36.2 µg/mL (≈ 141 µM); to `Cc1ccc(C)c(NC(=O)C2CC3CCC2C3)c1` (centres undefined), 10.6 µg/mL (≈ 43.6 µM); to `O=C1c2cccc3cccc(c23)C(=O)N1Cc1cccnc1`, 1.6 µg/mL (≈ 5.55 µM). To `O=c1cc(C(F)(F)F)[nH]c2ccc(C(F)(F)F)cc12` belongs above 42.2 µg/mL; to `Nc1ccc(-c2nc3ccccc3o2)cc1`, 20.8 µg/mL (≈ 98.9 µM). Under `O=C(Cc1ccccc1)Nc1cc2c(cc1Cl)OCCCO2` stands 5.5 µg/mL (≈ 17.3 µM). For the compound `S=C1NC2(CCCC2)Nc2ccccc21`, the kinetic solubility worked out at 32.5 µg/mL (≈ 149 µM). Under `CC(C#N)(Cc1ccccc1)Nc1ccccc1` (centres undefined) stands 18.8 µg/mL (≈ 79.6 µM); under `CC(c1ccccc1)N1CC(C(=O)O)CC1=O` (centres undefined), above 35 µg/mL. Under `CCn1c2ccccc2c2cc(NC(=O)c3cc(C)on3)ccc21` stands 2.3 µg/mL (≈ 7.2 µM). Under `CNC(=S)NCc1ccc2[nH]c(C)cc2c1` stands above 35 µg/mL.
